# Measured values as given in ChEMBL document CHEMBL1130588, “Biaryl acids: novel non-nucleoside inhibitors of HIV reverse transcriptase types 1 and 2” (Bioorg Med Chem Lett, 1998).
# Biological target: T1, Human immunodeficiency virus type 1 reverse transcriptase (Human immunodeficiency virus 1, UniProt Q72547)
# Test: Evaluated for inhibition of HIV-1 reverse transcriptase
row,IC50,SMILES
1,8.7 µM,O=C(CCCC(=O)Nc1ccc(Cl)cc1C(=O)O)Nc1ccc(Cl)cc1C(=O)O
2,19 µM,CSc1ccc(NC(=O)CCCCC(=O)Nc2ccc(SC)cc2C(=O)O)c(C(=O)O)c1
3,66 µM,O=C(Nc1ccc(Br)cc1C(=O)O)c1ccnc(C(=O)Nc2ccc(Br)cc2C(=O)O)c1
4,> 120 µM,O=C(CCCCC(=O)Nc1ccc(F)cc1C(=O)O)Nc1ccc(F)cc1C(=O)O
5,3.1 µM,O=C(CCCCC(=O)Nc1ccc(Br)cc1C(=O)O)Nc1ccc(Br)cc1C(=O)O
6,10.6 µM,COc1ccc(NC(=O)CCCCC(=O)Nc2ccc(OC)cc2C(=O)O)c(C(=O)O)c1
7,21 µM,O=C(CCCCC(=O)Nc1ccccc1C(=O)O)Nc1ccccc1C(=O)O
8,9 µM,O=C(CCCCCC(=O)Nc1ccc(Cl)cc1C(=O)O)Nc1ccc(Cl)cc1C(=O)O
9,8.7 µM,O=C(CCCCC(=O)Nc1ccc(Cl)cc1C(=O)O)Nc1ccc(Cl)cc1C(=O)O
10,35 µM,O=C(Nc1ccc(Br)cc1C(=O)O)c1ccc(C(=O)Nc2ccc(Br)cc2C(=O)O)nc1
11,> 100 µM,N#Cc1ccc(NC(=O)CCCCC(=O)Nc2ccc(C#N)cc2C(=O)O)c(C(=O)O)c1
12,14 µM,Cc1ccc(NC(=O)CCCCC(=O)Nc2ccc(C)cc2C(=O)O)c(C(=O)O)c1
13,15 µM,O=C(CCCCC(=O)Nc1ccc(Br)cc1C(=O)O)Nc1ccc(Br)cc1

# Biological target: T1, Human immunodeficiency virus type 1 reverse transcriptase
# Test: Compound was evaluated for inhibition of HIV-1 reverse transcriptase using rC.dG and [3H]dGTP as substrates at 100 ug/ml
row,IC50,SMILES
1,> 100 µM,CC(=O)Nc1ccc(NC(=O)CCCCC(=O)Nc2ccc(NC(C)=O)cc2C(=O)O)c(C(=O)O)c1

# Biological target: T1, Human immunodeficiency virus type 1 reverse transcriptase
# Test: Compound was evaluated for inhibition of HIV-1 reverse transcriptase using rC.dG and [3H]dGTP as substrates at 100 ug/mL
row,IC50,SMILES
1,18 µM,O=C(CCCCCCC(=O)Nc1ccc(Br)cc1C(=O)O)Nc1ccc(Br)cc1C(=O)O

# Biological target: T1, Human immunodeficiency virus type 1 reverse transcriptase
# Test: Evaluated for inhibition of HIV-1 reverse transcriptase; Inactive means <50% inhibition at 100 ug/mL concentration
row,SMILES,IC50
1,O=C(CCCCC(=O)Nc1ccc(Br)cc1C(=O)O)Nc1ccccc1,Not Active
2,O=C(Nc1ccc(Br)cc1C(=O)O)c1cncc(C(=O)Nc2ccc(Br)cc2C(=O)O)c1,Not Active
3,O=C(Nc1ccc(Br)cc1C(=O)O)c1cccc(C(=O)Nc2ccc(Br)cc2C(=O)O)n1,Not Active
4,O=C(Cc1cccc(CC(=O)Nc2ccc(Br)cc2C(=O)O)c1)Nc1ccc(Br)cc1C(=O)O,Not Active
5,O=C(CCCCC(=O)Nc1ccc(Br)cc1)Nc1ccccc1,Not Active
6,O=C(CCCCC(=O)Nc1ccccc1C(=O)O)Nc1ccccc1,Not Active
7,CN(CC(=O)Nc1ccc(Br)cc1C(=O)O)CC(=O)Nc1ccc(Br)cc1C(=O)O,Not Active
8,O=C(CCCCC(=O)Nc1ccccc1C(=O)O)Nc1ccc(Br)cc1,Not Active
9,O=C(COCC(=O)Nc1ccc(Br)cc1C(=O)O)Nc1ccc(Br)cc1C(=O)O,Not Active
